Reference: patent US4405743A, “Pyrazolylpyrimidine derivatives” (Hokko Chemical Industry Co., Ltd., priority 1981, dated 1983)
In brackets after ≈: the same amount, converted by molar mass. Read-outs that look alike come from different tables or passages of the source.

Key:
Pyricularia oryzae [1] = assay type: in vivo, Pyricularia oryzae on rice plant (variety: Asahi); conditions: rice blast, prevention; 200 ppm; 5 days after inoculation
Pyricularia oryzae [2] = assay type: in vivo, Pyricularia oryzae on rice plant (variety: Asahi); conditions: rice blast, curative treatment; sprayed liquid 200 ppm; 5 days after spraying
Cochliobolus miyabeanus [3] = assay: Effect of controlling rice brown spot, Experimental Example 3; assay type: in vivo, Cochliobolus miyabeanus on rice plant (variety: Asahi); conditions: sprayed liquid 500 ppm, 5 days after inoculation
Sphaerotheca friliginea = assay: Effect of controlling cucumber powdery mildew, Experimental Example 4; assay type: in vivo; conditions: sprayed liquid 200 ppm, 10 days after inoculation
Method: 10 ml of each of test liquids diluted to a predetermined concentration was sprayed over seedlings of a cucumber plant (variety: Sagami Hanpaku) grown up to the first leaf stage which has been soil cultured in an unglazed pot with a diameter of 9 cm in a green house. After allowing to stand overnight, the seedlings were sprayed for inoculation with a spore suspension of Sphaerotheca friliginea. Ten days after the inoculation, the rate of a lesion area (%) was checked and a control value was evaluated from the following equation. The degree of chemical injury against a cucumber plant was determined in the same manner as in Experimental Example.

rice plant [4] = conditions: blast prevention test, 200 ppm
rice plant [5] = conditions: blast curative test, 200 ppm
rice plant [6] = test system: rice plant
rice blast = conditions: Annual Report of the Takeda's Research Institute, Vol. 24, pages 250-258 (1965); cited from earlier work
[7] = Annual Report of the Takeda's Research Institute, Vol. 24, pages 250-258 (1965); cited from earlier work
Alternaria padwikii = assay: Antimicrobial activity (mycelium growth inhibition, PDA medium); assay type: cell-based; conditions: 24° C., read-out: ED50 value
Method: (§1) Experimental Example 5 (Test for Antimicrobial Activity Against Various Plant Phathogenic Fungi)
(§2) 1 ml of an acetone solution of each of test compounds and 20 ml of the PDA medium (50° C.) to prepare media containing the chemical in different concentrations, followed by charging into a petri dish with a diameter of 9 cm where it was solidified flat. On the central portion of the chemical-containing medium was inoculated a fungus-containing medium a piece of ager black-containing mycelia which was obtained by punching by means of a cork borer the tip portion of mycelia of each test fungus which had been cultured in advance in the PDA medium, followed by cultivating at 24° C. Two to six days after the cultivation, the diameter of the mycelia was measured and mycelium growth inhibiting rate was calculated from a comparison with that of a non-treated plot. The mycelium growth inhibiting rate was plotted on a logarithmic probability paper to determine an ED50 value.

Botrytis cinerea = assay: as above; assay type: cell-based; conditions: 24° C., read-out: ED50 value
Method: as §1, §2

Curvularia sp. = assay: as above; assay type: cell-based; conditions: 24° C., read-out: ED50 value
Method: as §1, §2

Diaporthe citri = assay: as above; assay type: cell-based; conditions: 24° C., read-out: ED50 value
Method: as §1, §2

Endothia parasitica = assay: as above; assay type: cell-based; conditions: Cryphonectria parasitica, 24° C., read-out: ED50 value
Method: as §1, §2

Fusarium nivale = assay: as above; assay type: cell-based; conditions: Microdochium nivale, 24° C., read-out: ED50 value
Method: as §1, §2

Glomerella cingulata = assay: as above; assay type: cell-based; conditions: Colletotrichum gloeosporioides, 24° C., read-out: ED50 value
Method: as §1, §2

[8] = test system: Helminthosporium gramineum; assay: as above; assay type: cell-based; conditions: 24° C., read-out: ED50 value
Method: as §1, §2

Mycosphaerella melonis = assay: as above; assay type: cell-based; conditions: 24° C., read-out: ED50 value
Method: as §1, §2

Pellicularia sasakii = assay: as above; assay type: cell-based; conditions: 24° C., read-out: ED50 value
Method: as §1, §2

Penicillium digitatum = assay: as above; assay type: cell-based; conditions: 24° C., read-out: ED50 value
Method: as §1, §2

Phizoctonia solani = assay: as above; assay type: cell-based; conditions: 24° C., read-out: ED50 value
Method: as §1, §2

Phoma lingam = assay: as above; assay type: cell-based; conditions: Plenodomus lingam, 24° C., read-out: ED50 value
Method: as §1, §2

Sclerotinia fructigena = assay: as above; assay type: cell-based; conditions: 24° C., read-out: ED50 value
Method: as §1, §2

Sclerotinia sclerotiorum = assay: as above; assay type: cell-based; conditions: 24° C., read-out: ED50 value
Method: as §1, §2

Cochliobolus miyabeanus [9] = assay: as above; assay type: cell-based; conditions: Bipolaris oryzae, read-out: ED50 value
Pyricularia oryzae [10] = assay: microbe, parasite or virus in culture; assay type: cell-based; conditions: read-out: ED50 value

SMILES	Control Value (Pyricularia oryzae [1]) [%]	Control Value (Pyricularia oryzae [2]) [%]	Control Value (Cochliobolus miyabeanus [3]) [%]	Control Value (Sphaerotheca friliginea) [%]	Degree of chemical injury (rice plant [4])	Degree of chemical injury (rice plant [5])	IC50 (Alternaria padwikii) [mg/L]	IC50 (Botrytis cinerea) [mg/L]	IC50 (Curvularia sp.) [mg/L]	IC50 (Diaporthe citri) [mg/L]	IC50 (Endothia parasitica) [mg/L]	IC50 (Fusarium nivale) [mg/L]	IC50 (Glomerella cingulata) [mg/L]	IC50 [8] [mg/L]	IC50 (Mycosphaerella melonis) [mg/L]	IC50 (Pellicularia sasakii) [mg/L]	IC50 (Penicillium digitatum) [mg/L]	IC50 (Phizoctonia solani) [mg/L]	IC50 (Phoma lingam) [mg/L]	IC50 (Sclerotinia fructigena) [mg/L]	also measured
Cc1cc(O)nc(-n2nc(C)cc2C)n1 [Comparative Chemical 1, 2-(3,5-dimethyl-1-pyrazolyl)-4-methyl-6-hydroxypyrimidine, reference compound]	75	70	75	53.2	5	5															Degree of chemical injury (rice plant [6]; 500 ppm): 5; Degree of chemical injury (cucumber plant; 200 ppm): 1; activity of controlling rice blast (rice blast): show an activity of controlling rice blast; chemical injury [7]: violent chemical injury
CCOc1nc(-n2nc(C)cc2C)ncc1C [Compound 32]	100	93	76	93	0	0	1.2 (≈ 5.17 µM)	13.8 (≈ 59.4 µM)	1.6 (≈ 6.89 µM)	4 (≈ 17.2 µM)	7.5 (≈ 32.3 µM)	2.3 (≈ 9.9 µM)	7 (≈ 30.1 µM)	7.5 (≈ 32.3 µM)	1.8 (≈ 7.75 µM)	1.5 (≈ 6.46 µM)	0.6 (≈ 2.58 µM)	2.4 (≈ 10.3 µM)	5.3 (≈ 22.8 µM)	0.9 (≈ 3.87 µM)	IC50 (Sclerotinia sclerotiorum): 5.5 mg/L (≈ 23.7 µM); IC50 (Cochliobolus miyabeanus [9]): 3.8 mg/L (≈ 16.4 µM); IC50 (Pyricularia oryzae [10]): 0.8 mg/L (≈ 3.44 µM); Degree of chemical injury (rice plant [6]; in vivo): 0; Degree of chemical injury (cucumber plant; in vivo): 0
Cc1cc(C)n(-c2nc(O)cc(-c3ccccc3)n2)n1 [Comparative Chemical 2, 2-(3,5-dimethyl-1-pyrazolyl)-4-phenyl-6-hydroxypyrimidine, reference compound]	76	71	73	48.3	5	5															Degree of chemical injury (rice plant [6]; 500 ppm): 5; Degree of chemical injury (cucumber plant; 200 ppm): 1; activity of controlling rice blast (rice blast): show an activity of controlling rice blast; chemical injury [7]: violent chemical injury
CCCCc1c(C)nc(-n2nc(C)cc2C)nc1SCC [Compound 42]	100	100	100	92	0	0	0.7 (≈ 2.3 µM)	3.7 (≈ 12.2 µM)	1.4 (≈ 4.6 µM)	2.7 (≈ 8.87 µM)	3.8 (≈ 12.5 µM)	2 (≈ 6.57 µM)	4 (≈ 13.1 µM)	5.2 (≈ 17.1 µM)	0.9 (≈ 2.96 µM)	2 (≈ 6.57 µM)	2 (≈ 6.57 µM)	1.3 (≈ 4.27 µM)	3.2 (≈ 10.5 µM)	2.1 (≈ 6.9 µM)	IC50 (Sclerotinia sclerotiorum): 5.2 mg/L (≈ 17.1 µM); IC50 (Cochliobolus miyabeanus [9]): 1.8 mg/L (≈ 5.91 µM); IC50 (Pyricularia oryzae [10]): 0.02 mg/L (≈ 0.0657 µM); Degree of chemical injury (rice plant [6]; in vivo): 0; Degree of chemical injury (cucumber plant; in vivo): 0
Cc1ccc(Oc2cc(C)nc(-n3nc(C)cc3C)n2)c(C)c1 [Compound 27]	100	100			0	0	1.9 (≈ 6.16 µM)	9.8 (≈ 31.8 µM)	1.6 (≈ 5.19 µM)	2.9 (≈ 9.4 µM)	6.3 (≈ 20.4 µM)	2.8 (≈ 9.08 µM)	6.7 (≈ 21.7 µM)	3.6 (≈ 11.7 µM)	4.6 (≈ 14.9 µM)	1 (≈ 3.24 µM)	1.2 (≈ 3.89 µM)	1.1 (≈ 3.57 µM)	3.7 (≈ 12 µM)	1.4 (≈ 4.54 µM)	IC50 (Sclerotinia sclerotiorum): 4.8 mg/L (≈ 15.6 µM); IC50 (Cochliobolus miyabeanus [9]): 2.2 mg/L (≈ 7.13 µM); IC50 (Pyricularia oryzae [10]): 0.02 mg/L (≈ 0.0649 µM)
